Measured values as given in patent publication US11220548B2, “Treatment of C1013G/CXCR4-associated Waldenstrom's macroglobulinemia with an anti-CXCR4 antibody” (BRISTOL-MYERS SQUIBB COMPANY, priority 2013, dated 2022).

Columns and labels:
[1] = system: WM cell lines (BCWM.1; MWCL.1); test: Transwell migration assay of WM cell lines; assay type: cell-based, human; settings: increasing concentrations, 5 h
Method: FIGS. 14A and 14B: FIGS. 14A and 14B show the effect of BMS-936564 on migration of WM cells in vitro. WM cell lines (BCWM.1; MWCL.1) were tested for their migratory properties using a transwell migration assay. Cells were exposed to increasing concentrations of BMS-936564 and migration was determined after 5 h. The transwell migration assay was performed in presence of either primary WM BM-MSCs (FIG. 14A) or in presence of SDF-1α (FIG. 14B). In both cases, BMS-936564-dependent inhibition of WM cell migration was observed.

[2] = system: C1013G/CXCR4-infected BCWM.1 cells; test: Adhesion of C1013G/CXCR4-infected cells to primary WM BM-MSCs; assay type: cell-based, human; settings: in the context of the BM microenvironment
Method: (§1) FIGS. 21A-21D: FIGS. 21A-21D show BMS-936564 targets C1013G/CXCR4-mutated cells in WM cells in the context of BM. C1013G/CXCR4-infected BCWM.1 cells were tested for their migratory properties using a transwell migration assay. Cells were exposed to increasing concentrations of BMS-936564 and migration was determined after 5 h. The transwell migration assay was performed in presence of either primary WM BM-MSCs (FIG. 21A) or SDF-1α (FIG. 21B). In both cases, BMS-936564-dependent inhibition of WM cell migration was observed. C1013G/CXCR4-infected BCWM.1 cells were treated with BMS-936564/for 4 h and subsequently tested for adhesion to primary WM BM-MSCs. […] C1013G/CXCR4-infected BCWM.1 cells were cultured with control media and with BMS-936564 for 48 h in the presence or absence of primary WM BM-MSCs. Cell proliferation was assessed using [^3H]-thymidine uptake assay (FIG. 21D). Bars indicate standard deviations. P indicates P value. All data represent mean (±sd) of triplicate experiments. […].

[3] = system: C1013G/CXCR4-infected BCWM.1 cells; test: Transwell migration assay of C1013G/CXCR4-infected cells; assay type: cell-based, human; settings: in the context of the BM microenvironment
Method: as §1

[4] = system: C1013G/CXCR4-infected BCWM.1 cells; test: [3H]-thymidine uptake proliferation assay of C1013G/CXCR4-infected cells; assay type: cell-based, human; settings: in the context of the BM microenvironment, 48 h
Method: as §1

[5] = system: C1013G/CXCR4-mutated cells; test: Western blot of survival and apoptosis-related proteins in C1013G/CXCR4-WM cells; assay type: cell-based, human
Method: FIGS. 22A-22C: FIGS. 22A-22C show the effect of BMS-936564 on survival and apoptosis-related signal proteins in C1013G/CXCR4-WM cells. C1013G/CXCR4-mutated cells were cultured in presence or absence of BMS-936564 for 6 h, showing inhibition of phospho(p)-ERK, ERK, p-Akt, Akt, p-Src (FIG. 22A). Similarly, cells were exposed to the compound for 14 h, and induction of apoptosis-related pathways was observed (p-GSK3β, and p-β-catenin (FIG. 22B), and PARP and Caspase-9 (FIG. 22C)).
Protein lysates were obtained from WM cells by homogenization under nondenaturing conditions in lysis buffer (Cell Signaling Technology, Beverly, Mass.) supplemented with 5 mM NaF, 2 mM Na3VO4, 1 mM PMSF ([…]), 5 μg/mL leupeptine, and 5 μg/mL aprotinin. Whole-cell lysates were subjected to sodium dodecyl sulfate-polyacrylamide gel electrophoresis (SDS-PAGE) and transferred to polyvinylidene difluoride (PVDF) membrane (Bio-Rad Laboratories, Hercules, Calif.). The antibodies used for immunoblotting included: anti-phospho(p)-ERK, anti-ERK, anti-p-Akt, anti-Akt, anti-p-Src, anti-Src, anti-caspase-9, anti-PARP, anti-p-β-catenin, anti-β-catenin, anti-p-GSK3, anti-GAPDH and anti-α-tubulin antibodies (Cell Signaling, Danvers, Mass.).

BCWM.1-mCherry+ cells = test: In vivo homing and tumor progression of wild-type WM cells; set-up: species or system SCID/Bg mice
Method: Serum was collected at the end of the study. […] Cell toxicity was performed by MTT. […] Bars indicate standard deviation.
Human serum IgM levels were determined by using a human IgM ELISA assay (ZeptoMetrix, Buffalo, N.Y.), according to the manufacturer's protocol.
SCID/Bg mice (n=5/group) were injected with BCWM.1 infected with either precision LentiORF/CXCR4/GFP (CXCR4^+)- or empty vector probe/RFP (control)-infected BCWM.1 cells. After three weeks, mice were euthanized and organs harvested. Hematoxylin-eosin staining, immunohistochemistry for human-CD20 and -CXCR4 were performed on explanted organs. Independent experiments were conducted to evaluate differences in survival (SCID/Bg mice, n=7/group). Similar studies were conducted using […]/CXCR4-mutated cells and control vector-infected cells (control cells). In vivo homing studies were performed using BCWM.1-mCherry^+ cells: cells were injected intravenously into […] mice and treated with either BMS-936564 or control antibody (10 mg/kg, intraperitoneally; 3-4 times per week for 3 weeks). The ability of BMS-936564 to modulate WM homing to BM, spleen and lymph nodes was evaluated ex vivo at the third week on explanted tissues, by using a fluorescence microscope (Nikon Eclipse 80i, Melville, N.Y.) (Roccaro et al., 2013).
The anti-WM activity of BMS-936564 was also tested in vivo using wild-type WM cells. BCWM.1-mCherry^+ cells were injected intravenously into SCID/Bg mice and treated mice with either BMS-936564 or control antibody.
As CXCR4 inhibition is thought to induce stem cell and tumor cell mobilization, it was hypothesized that BMS-936564 may also induce mobilization of WM cells leading to increased chemosensitivity to anti-WM agents. Accordingly, the effect of BMS-936564 in modulating tumor progression and WM cell dissemination to distant BM niches in vivo was evaluated as monotherapy or in combination with bortezomib.

For “BMS-936564: fully human anti-CXCR4 monoclonal antibody; VH SEQ ID NO: 25, VL SEQ ID NO: 29”, the “migration of WM cell lines towards SDF-1” value [1] was “inhibit migration”, the “migration of WM cell lines towards primary WM BM-MSCs” value [1] was “inhibit migration” and the “targeting adhesion of CXCR4-mutated cells” value [2] was “equally active”. The “targeting migration of CXCR4-mutated cells” value [3] was “equally active”, the “targeting proliferative properties of CXCR4-mutated cells” value [4] was “equally active” and the “p-ERK, p-Akt, and p-Src in WM cells harboring the C1013G/CXCR4 mutation” value ([5]; 6 h) was “dose-dependent inhibition”. For the same substance, the “GSK3-β/β-catenin signaling in CXCR4-mutated WM cells” value ([5]; 14 h) was “up-regulation of p-GSK3-β/p-β-catenin and β-catenin degradation”, the “caspase-9- and PARP-cleavage in CXCR4-mutated WM cells” value ([5]; 14 h) was “increased” and the “tumor cells within the BM” value (BCWM.1-mCherry+ cells; BMS-936564 10 mg/kg i.p., bortezomib 0.5 mg/kg i.p. x2/week, P<0.05) was “significant reduction”. The “serum IgM levels” value (BCWM.1-mCherry+ cells; human IgM ELISA at end of study, P<0.05) was “significantly reduced” and the “WM cell dissemination (BM, spleen and lymph nodes, immunofluorescence imaging ex vivo)” value (BCWM.1-mCherry+ cells; wild-type WM cells, 10 mg/kg intraperitoneally, vs control antibody) was “inhibit WM cell dissemination”.
